Experimental data reported in publication PMC10568461, “A pilot study of cerebral metabolism and serotonin 5-HT2A receptor occupancy in rats treated with the psychedelic tryptamine DMT in conjunction with the MAO inhibitor harmine” (Frontiers in Pharmacology, 2023).

Experiments:
[1] = Brain concentrations of harmine, DMT and metabolites by UHPLC-MS after s.c. harmine and/or DMT; details: for concentration at 95 min / concentration at 65 min: rat, subcutaneous
Procedure: Groups of (n = 6) rats received either saline, harmine (1 mg/kg), DMT (1 mg/kg), or harmine + DMT (1 mg/kg each) as subcutaneous injections, as indicated in Figure 1.
After 45 min, rats were sacrificed by decapitation, and the brains dissected into cerebellum and frontal cortex samples for radioactivity measurement and chemical analysis, thus 65 min after harmine + DMT.

[2] = target: T1, MAO-A (Rattus norvegicus, UniProt P21396); parameters: method as in Maschauer et al., 2015; details: ref Maschauer et al., 2015; read-out: Apparent affinity (KD) at MAO-binding sites in living rat brain; cited from earlier work
T1 sequence (P21396 1-526): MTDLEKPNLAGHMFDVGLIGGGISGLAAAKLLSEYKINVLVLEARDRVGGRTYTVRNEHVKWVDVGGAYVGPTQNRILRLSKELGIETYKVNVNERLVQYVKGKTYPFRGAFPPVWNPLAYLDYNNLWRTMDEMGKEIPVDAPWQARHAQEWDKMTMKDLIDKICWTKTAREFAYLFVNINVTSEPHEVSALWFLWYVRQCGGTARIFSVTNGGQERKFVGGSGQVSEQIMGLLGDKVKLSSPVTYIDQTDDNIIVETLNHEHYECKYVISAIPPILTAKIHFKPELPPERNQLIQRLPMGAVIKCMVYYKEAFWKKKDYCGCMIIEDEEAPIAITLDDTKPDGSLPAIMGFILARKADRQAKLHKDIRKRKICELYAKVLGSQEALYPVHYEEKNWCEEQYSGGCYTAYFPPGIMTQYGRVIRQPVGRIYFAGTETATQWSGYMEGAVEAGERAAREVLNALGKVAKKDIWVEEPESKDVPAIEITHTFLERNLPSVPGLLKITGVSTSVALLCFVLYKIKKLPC

[3] = target: MAO-A; details: ref Maschauer et al., 2015; read-out: KD in vitro; cited from earlier work
[4] = target: T1, MAO-A; test: Apparent affinity at MAO binding sites in living brain; assay type: in vivo; details: from values of ref Maschauer et al., 2015
[5] = system: 5-HT2A receptors; details: cited from earlier work
[6] = Exp 1, group DMT, average of regions
[7] = Exp 1, group Har + DMT, average of regions
[8] = Exp 1, group Har + DMT, cerebellum
[9] = Exp 1, group Har + DMT, front cort
[10] = Exp 2, group Har + DMT, average of regions
[11] = Exp 2, group Har + DMT, cerebellum
[12] = Exp 2, group Har + DMT, front cort
[13] = brain (average of frontal cortex and cerebellum), 1 mg/kg, Molar concentration, Exp 1, group DMT, average of regions
[14] = brain (average of frontal cortex and cerebellum), Molar concentration, Exp 1, group Har + DMT, average of regions
[15] = brain (average of frontal cortex and cerebellum), Molar concentration, Exp 2, group Har + DMT, average of regions
[16] = cerebellum, 1 mg/kg, Molar concentration, Exp 1, group DMT, cerebellum
[17] = cerebellum, Molar concentration, Exp 1, group Har + DMT, cerebellum
[18] = cerebellum, Molar concentration, Exp 2, group Har + DMT, cerebellum
[19] = frontal cortex, 1 mg/kg, Molar concentration, Exp 1, group DMT, front cort
[20] = frontal cortex, Molar concentration, Exp 1, group Har + DMT, front cort
[21] = frontal cortex, Molar concentration, Exp 2, group Har + DMT, front cort

SMILES: O=C(O)Cc1c[nH]c2ccccc12 [3-IAA, indole-3-acetic acid]
- Percentage of total molar concentration of DMT and metabolites [1, 6]: 97.5%
- Percentage of total molar concentration of DMT and metabolites ([1]; Exp 1, group DMT, cerebellum): 97.9%
- Percentage of total molar concentration of DMT and metabolites ([1]; Exp 1, group DMT, front cort): 97.3%
- Percentage of total molar concentration of DMT and metabolites [1, 7]: 64.7%
- Percentage of total molar concentration of DMT and metabolites [1, 8]: 65.3%
- Percentage of total molar concentration of DMT and metabolites [1, 9]: 64.2%
- Percentage of total molar concentration of DMT and metabolites [1, 10]: 25.9%
- Percentage of total molar concentration of DMT and metabolites [1, 11]: 27.5%
- Percentage of total molar concentration of DMT and metabolites [1, 12]: 24.7%
- Brain concentration ([1]; Experiment 1, cerebellum, group DMT (1 mg/kg s.c.), 95 min, mean (SD)): 398.5 (128.3) ng/g
- Brain concentration ([1]; Experiment 1, cerebellum, group Har + DMT (1 mg/kg each s.c.), 95 min, mean (SD)): 194.1 (117.2) ng/g
- Brain concentration ([1]; Experiment 1, frontal cortex, group DMT (1 mg/kg s.c.), 95 min, mean (SD)): 503.9 (137.7) ng/g
- Brain concentration ([1]; Experiment 1, frontal cortex, group Har + DMT (1 mg/kg each s.c.), 95 min, mean (SD)): 257.5 (103.6) ng/g
- Lower cerebral 3-IAA concentration after co-administration of harmine and DMT ([1]; Experiment 1, versus DMT alone): 50%
- Brain concentration ([1]; Experiment 2, cerebellum, group Har + DMT (3 mg/kg each s.c.), 65 min, mean (SD)): 530.7 (129.8) ng/g
- Brain concentration ([1]; Experiment 2, frontal cortex, group Har + DMT (3 mg/kg each s.c.), 65 min, mean (SD)): 652.1 (186.5) ng/g
- concentration at 95 min [1, 13]: 2580 nM
- concentration at 95 min [1, 14]: 1290 nM
- concentration at 65 min [1, 15]: 3380 nM
- concentration at 95 min ([1]; cerebellum, 1 mg/kg, Brain concentration, Experiment 1, cerebellum, after DMT alone (1 mg/kg)): 2300 nM
- concentration at 95 min ([1]; cerebellum, 1 mg/kg, Brain concentration, Experiment 1, cerebellum, group DMT (1 mg/kg s.c.), 95 min, mean (SD)): 398 ng/g
- concentration at 95 min [1, 16]: 2270 nM
- concentration at 95 min ([1]; cerebellum, Brain concentration, Experiment 1, cerebellum, after harmine + DMT (1 mg/kg each)): 1100 nM
- concentration at 95 min ([1]; cerebellum, Brain concentration, Experiment 1, cerebellum, group Har (harmine 1 mg/kg s.c.), 95 min after drug, mean (SD)): 11.1 ng/g
- concentration at 95 min ([1]; cerebellum, Brain concentration, Experiment 1, cerebellum, group Har + DMT (1 mg/kg each s.c.), 95 min, mean (SD)): 194 ng/g
- concentration at 65 min ([1]; cerebellum, Brain concentration, Experiment 2, cerebellum, after harmine + DMT (3 mg/kg each)): 3000 nM
- concentration at 65 min ([1]; cerebellum, Brain concentration, Experiment 2, cerebellum, group Har + DMT (3 mg/kg each s.c.), 65 min, mean (SD)): 531 ng/g
- concentration at 95 min [1, 17]: 1110 nM
- concentration at 65 min [1, 18]: 3030 nM
- concentration at 95 min ([1]; frontal cortex, 1 mg/kg, Brain concentration, Experiment 1, frontal cortex, after DMT alone (1 mg/kg)): 2900 nM
- concentration at 95 min ([1]; frontal cortex, 1 mg/kg, Brain concentration, Experiment 1, frontal cortex, group DMT (1 mg/kg s.c.), 95 min, mean (SD)): 504 ng/g
- concentration at 95 min [1, 19]: 2880 nM
- concentration at 95 min ([1]; frontal cortex, Brain concentration, Experiment 1, frontal cortex, after harmine + DMT (1 mg/kg each), 95 min): 1500 nM
- concentration at 95 min ([1]; frontal cortex, Brain concentration, Experiment 1, frontal cortex, group Har (harmine 1 mg/kg s.c.), 95 min, mean (SD)): 14.1 ng/g
- concentration at 95 min ([1]; frontal cortex, Brain concentration, Experiment 1, frontal cortex, group Har + DMT (1 mg/kg each s.c.), 95 min, mean (SD)): 258 ng/g
- concentration at 65 min ([1]; frontal cortex, Brain concentration, Experiment 2, frontal cortex, after harmine + DMT (3 mg/kg each), 65 min): 3700 nM
- concentration at 65 min ([1]; frontal cortex, Brain concentration, Experiment 2, frontal cortex, group Har + DMT (3 mg/kg each s.c.), 65 min, mean (SD)): 652 ng/g
- concentration at 95 min [1, 20]: 1470 nM
- concentration at 65 min [1, 21]: 3720 nM

SMILES: C[N+](C)([O-])CCc1c[nH]c2ccccc12 [DMT-N-Oxide, DMT-N-oxide]
- Molar concentration [1, 6]: 3.29 nmol/L
- Percentage of total molar concentration of DMT and metabolites [1, 6]: 0.1%
- Molar concentration ([1]; Exp 1, group DMT, cerebellum): 3.16 nmol/L
- Percentage of total molar concentration of DMT and metabolites ([1]; Exp 1, group DMT, cerebellum): 0.1%
- Molar concentration ([1]; Exp 1, group DMT, front cort): 3.43 nmol/L
- Percentage of total molar concentration of DMT and metabolites ([1]; Exp 1, group DMT, front cort): 0.1%
- Molar concentration [1, 7]: 27.52 nmol/L
- Percentage of total molar concentration of DMT and metabolites [1, 7]: 1.4%
- Molar concentration [1, 8]: 30.49 nmol/L
- Percentage of total molar concentration of DMT and metabolites [1, 8]: 1.8%
- Molar concentration [1, 9]: 24.54 nmol/L
- Percentage of total molar concentration of DMT and metabolites [1, 9]: 1.1%
- Molar concentration [1, 10]: 90.73 nmol/L
- Percentage of total molar concentration of DMT and metabolites [1, 10]: 0.7%
- Molar concentration [1, 11]: 131.9 nmol/L
- Percentage of total molar concentration of DMT and metabolites [1, 11]: 1.2%
- Molar concentration [1, 12]: 49.57 nmol/L
- Percentage of total molar concentration of DMT and metabolites [1, 12]: 0.3%

SMILES: CNCCc1c[nH]c2ccccc12 [NMT, N-methyltryptamine]
- Percentage of total molar concentration of DMT and metabolites [1, 6]: 0.0%
- Percentage of total molar concentration of DMT and metabolites ([1]; Exp 1, group DMT, cerebellum): 0.0%
- Percentage of total molar concentration of DMT and metabolites ([1]; Exp 1, group DMT, front cort): 0.0%
- Percentage of total molar concentration of DMT and metabolites [1, 7]: 0.1%
- Percentage of total molar concentration of DMT and metabolites [1, 8]: 0.1%
- Percentage of total molar concentration of DMT and metabolites [1, 9]: 0.0%
- Percentage of total molar concentration of DMT and metabolites [1, 10]: 0.1%
- Percentage of total molar concentration of DMT and metabolites [1, 11]: 0.2%
- Percentage of total molar concentration of DMT and metabolites [1, 12]: 0.1%
- concentration at 95 min [1, 13]: 0.15 nM
- concentration at 95 min [1, 14]: 1.14 nM
- concentration at 65 min [1, 15]: 15.9 nM
- concentration at 95 min [1, 16]: 0.15 nM
- concentration at 95 min [1, 17]: 1.38 nM
- concentration at 65 min [1, 18]: 20.7 nM
- concentration at 95 min [1, 19]: 0.16 nM
- concentration at 95 min [1, 20]: 0.89 nM
- concentration at 65 min [1, 21]: 11.2 nM

SMILES: Cc1nccc2c1[nH]c1cc(OCCF)ccc12 [[^18F]fluoroethyl-harmol]
- Kd [2]: 300 nM
- Kd [3]: 2 nM

SMILES: Cc1nccc2c1[nH]c1cc(OCC[18F])ccc12 [[^18F]fluoroethyl-harmol]
- In vitro/in vivo affinity difference [4]: 150 fold

SMILES: CN(C)CCc1c[nH]c2cccc(OP(=O)(O)O)c12 [psilocybin]
- Occupancy at 5-HT2A receptors ([5]; PET with [^11C]Cimbi-36, ref Madsen et al., 2019): ≤ 70%
- Occupancy at 5-HT2A receptors in human frontal cortex ([5]; PET with [^18F]altanserin, ref Hasler et al., 2009a): ≤ 35%
